{
  "source": "patent US20250235499A1",
  "about": "“ANTI-OVARIAN CANCER PHARMACEUTICAL COMPOSITION AND ACTION TARGET THEREOF” (Zhejiang Chinese Medical University, priority 2024, published 2025)",
  "key": {"Hey ovarian cancer cells": {"system": "Hey ovarian cancer cells", "assay": "CCK-8 detection of proliferation of an ovarian cancer cell", "assay_type": "cell-based, human", "settings": "CA 50-800 μmol/L, BDMC 3.125-50 μmol/L, 24 and 48 hours, concentration- and time-dependent", "description": "(§1) SKOV3 and Hey ovarian cancer cells in logarithmic growth phase were digested with 0.1% trypsin to prepare a cell suspension, and the cell concentration was quantified at 10^4 cells/mL. 200 μL of the cell suspension each well was inoculated into a 96 well plate, and 200 μL of PBS was added to each well of the outer circle to eliminate edge effects. The 96 well plate was placed in a 37° C. incubator containing 5% CO2 for 24 hours each. After the cells adhered to the wall, the culture medium was discarded, and the cells were washed three times with PBS buffer. New culture medium containing different concentrations of CA (0, 50, 100, 200, 400, and 800 μmol/L) and BDMC ([…]) were added, with 6 parallel wells in each group. After adding a pharmaceutical, cultivation was further conducted, the 96 well plate was taken out at 24 hours and 48 hours, the original culture medium was discarded, the cells were washed three times with PBS, 200 μL of prepared serum-free culture medium containing 10% CCK-8 was added, and incubated at 37° C. for 1 hour. A well with drug concentration of 0 μmol/L was used as a control well and a well without cells and only added with a CCK-8 solution as a blank well. An absorbance at a wavelength of 450 nm was measured using a microplate reader, and an IC50 value was calculated using GraphPad Prism 8 software. […]"}, "[1]": {"system": "SKOV3 ovarian cancer cells", "assay": "CCK-8 detection of proliferation of an ovarian cancer cell", "assay_type": "cell-based, human", "settings": "CA 50-800 μmol/L, BDMC 3.125-50 μmol/L, 24 and 48 hours, concentration- and time-dependent", "description": "as §1"}, "Hey ovarian cancer cell": {"system": "Hey ovarian cancer cell", "assay": "Tumor bearing nude mouse model (tumor volume, tumor inhibition rate, body weight)", "assay_type": "in vivo, BALB/c nude mice", "settings": "intraperitoneal, 15 days; DDP 3 mg/kg, CA 80 mg/kg, BDMC 5 mg/kg; compared to the Control group, P<0.01", "description": "Newly housed BALB/c nude mice were placed in an SPF grade feeding room laminar flow rack for adaptive feeding for one week, and the experimental animal status was adjusted. A Hey ovarian cancer cell was cultivated to the logarithmic growth stage, and the original culture medium was discarded. The Hey ovarian cancer cell was washed with PBS buffer, added with 0.1% trypsin digestion for digestion, added with the corresponding culture medium to terminate digestion, centrifuged at 1000 rpm for 3 minutes, and added with PBS buffer to prepare a cell suspension. The cell was counted using a hemocytometer, and the cell concentration was quantified to 5×10^7 cells/mL. After grasping and fixing the nude mouse with the left hand, and the skin at a needle inserting site on the right forelimb axilla of the nude mouse was disinfected with a 75% alcohol cotton ball. A disposable 1 mL syringe was used to inject approximately 100 μL of cell suspension subcutaneously into the posterior axilla of the right forelimb in an oblique stabbing inserting needle mode, so that each nude mouse was injected with approximately 5×10^6 cells. After vaccination, the needle inserting site was gently pressed with a cotton ball to prevent the cell suspension from leaking from a needle hole. The growth status of tumors at the vaccination site of nude mice was observed daily. After about one week, if the tumors at the vaccination site were compacted and appeared light red in color, it could be considered as successful tumor growth. At this time, the nude mice were randomly divided into 5 groups, a Control group intraperitoneally injected with physiological saline for 1 day each time; a DDP group intraperitoneally injected with cisplatin, 3 mg/kg, 3 d/time; a CA group intraperitoneally injected with CA, 80 mg/kg, 1 d/time; a BDMC group intraperitoneally injected with BDMC, 5 mg/kg, 1 d/time; a CA+BDMC group intraperitoneally injected with CA 80 mg/kg+BDMC 5 mg/kg, 1 d/time, 8 animals per group. A tumor length (L) and a […] were measured with a vernier caliper every 3 days to calculate a tumor volume. After 15 days of administration, nude mice were euthanized by dislocation of cervical vertebra, and tumor tissue was dissected. The tumor weight was weighed to calculate the tumor inhibition rate. The tumor tissue was stored in two batches at −80° C. and fixed with 4% paraformaldehyde."}, "[2]": {"system": "CDK4, Cyclin D1, P21 in SKOV3 cells", "assay": "Expression of cell cycle related proteins in cells", "assay_type": "cell-based, human"}, "[3]": {"system": "E-cadherin, N-cadherin, Vimentin in SKOV3 cells", "assay": "Expression of EMT related proteins in cells", "assay_type": "cell-based, human"}, "[4]": {"settings": "SKOV3 OE-MCM2 cells (MCM2 overexpression), vs OE-MCM2 group"}, "[5]": {"settings": "SKOV3 OE-NC cells (empty vector), vs OE-NC group"}, "[6]": {"settings": "SKOV3 sh-MCM2 cells (MCM2 knockdown), vs sh-MCM2 group"}, "[7]": {"settings": "SKOV3 sh-NC cells (empty vector), vs sh-NC group"}},
  "data": [
    {"smiles": "COc1ccc(-c2coc3cc(O)ccc3c2=O)cc1O", "note": "[CA, calycosin]", "values": [
      {"measurement": "effect on proliferation", "setting": "Hey ovarian cancer cells", "result": "proliferative inhibitory effects"},
      {"measurement": "effect on proliferation", "setting": "[1]", "result": "proliferative inhibitory effects"},
      {"measurement": "tumor inhibition rate", "setting": "Hey ovarian cancer cell", "result": "significantly increased"},
      {"measurement": "tumor volume size", "setting": "Hey ovarian cancer cell", "result": "significantly reduced"},
      {"measurement": "expression of CDK4", "setting": "[2]; [4]", "result": "no significant change"},
      {"measurement": "expression of Cyclin D1", "setting": "[2]; [4]", "result": "no significant change"},
      {"measurement": "expression of P21", "setting": "[2]; [4]", "result": "no significant change"},
      {"measurement": "expression of CDK4", "setting": "[2]; [5]", "result": "significantly decreased"},
      {"measurement": "expression of Cyclin D1", "setting": "[2]; [5]", "result": "significantly decreased"},
      {"measurement": "expression of P21", "setting": "[2]; [5]", "result": "significantly increased"},
      {"measurement": "expression of CDK4", "setting": "[2]; [6]", "result": "no significant change"},
      {"measurement": "expression of Cyclin D1", "setting": "[2]; [6]", "result": "no significant change"},
      {"measurement": "expression of P21", "setting": "[2]; [6]", "result": "no significant change"},
      {"measurement": "expression of CDK4", "setting": "[2]; [7]", "result": "significantly decreased"},
      {"measurement": "expression of Cyclin D1", "setting": "[2]; [7]", "result": "significantly decreased"},
      {"measurement": "expression of P21", "setting": "[2]; [7]", "result": "significantly increased"},
      {"measurement": "expression of E-cadherin", "setting": "[3]; [4]", "result": "no significant change"},
      {"measurement": "expression of N-cadherin", "setting": "[3]; [4]", "result": "no significant change"},
      {"measurement": "expression of Vimentin", "setting": "[3]; [4]", "result": "no significant change"},
      {"measurement": "expression of E-cadherin", "setting": "[3]; [5]", "result": "significantly increased"},
      {"measurement": "expression of N-cadherin", "setting": "[3]; [5]", "result": "significantly decreased"},
      {"measurement": "expression of Vimentin", "setting": "[3]; [5]", "result": "significantly decreased"},
      {"measurement": "expression of E-cadherin", "setting": "[3]; [6]", "result": "no significant change"},
      {"measurement": "expression of N-cadherin", "setting": "[3]; [6]", "result": "no significant change"},
      {"measurement": "expression of Vimentin", "setting": "[3]; [6]", "result": "no significant change"},
      {"measurement": "expression of E-cadherin", "setting": "[3]; [7]", "result": "significantly increased"},
      {"measurement": "expression of N-cadherin", "setting": "[3]; [7]", "result": "significantly decreased"},
      {"measurement": "expression of Vimentin", "setting": "[3]; [7]", "result": "significantly decreased"}
    ]}
  ]
}
